pIC50: −log10 of the molar value. A value given as a limit tells only on which side of the number the result lay.

One assay has as its system MCF7 cells. Nature of the assay: MCF7 cell activity test (CCK8 proliferation inhibition). The following applies: Homo sapiens, MCF7, 144 h, 6 days incubation. Type of assay: cell-based. The method, then:
Experimental Example 1: MCF7 cell activity test
Cell culture: MCF7 cells (culture conditions: MEM medium+20% FBS+1% essential amino acids++1 mg/100 ml insulin, 37° C., 5% CO2). Plating: The cells subcultured into the logarithmic growth phase were collected and transferred into a centrifuge tube, and centrifuged at 800 rpm for 5 min. The cells were resuspended in complete medium and counted. The cells were diluted and adjusted to a final concentration of 30,000 cells/mL. The cells were then seeded into a 96-well plate with 100 μL per well and incubated in an incubator overnight. Administration: Each group of drug solutions was added into the 96-well plate, 100 μL per well, n=3 for each drug concentration. Meanwhile, negative wells (n=6) and blank wells (n=3) were set up. The 96-well plate was incubated in the incubator for further 6 days. CCK8 reagent was added to the 96-well plate, 20 μL per well, and then the plate was placed in the incubator for further 4 h. The absorbance of the solution was measured at a wavelength of 450 nm using an enzyme reader. The proliferation inhibition rate was calculated and the half inhibitory concentration IC50 value was calculated using Graphpad Prism 6.0 software.

The next assay has as its system MCF-7 tumor. Nature of the assay: In vivo tumor inhibitory activity test (MCF-7 tumor, estradiol-supplemented mice). The following applies: 5 mg/kg/d (I.V.), Day 19, relative tumor volume inhibition rate, P < 0.05. The method, then:
Experimental Example 3: In Vivo Tumor Inhibitory Activity Test
MCF-7 cell culture (culture conditions: MEM medium+20% FBS+1% essential amino acids ++1 mg/100 ml insulin, 37° C., 5% CO2). The cells subcultured into the logarithmic growth phase were collected and transferred into a centrifuge tube, and centrifuged at 800 rpm for 5 min. On the day of inoculation, the cell density was adjusted to 3*10^7 cells/mL. […]
Grouped administration: When the average tumor volume reached 80-150 mm^3, the animals were randomly grouped according to tumor volume, with the coefficient of variation (CV) of tumor volumes not exceeding ⅓ of the mean volume. […] The body weight of the mice was measured before administration, and the administration was based on the body weight on that day. Experimental observation and data collection: After cell inoculation, the effect of the tumor on the normal behavior of the animals was routinely monitored every week. […] After the start of administration, the mice were weighed and dosed daily, and tumor volume was measured twice a week. The tumor volume was calculated as follows: tumor volume (mm^3)=0.52×tumor long diameter (mm) x tumor short diameter (mm) 2. […]
[formula] […] All data were analyzed using GraphPad Prism 6.0.

Usually pIC50 stands for the negative decadic logarithm of the IC50, by convention in mol/L. Low values mean a high IC50, high ones a low IC50. Turning to `Cn1nc(N2CCC(=O)NC2=O)c2cc(F)c(C3(O)CCN(C[C@@H]4CCCC[C@H]4CN4CCN(c5ccc([C@@H]6c7ccc(O)cc7CC[C@@H]6c6ccccc6)cc5)CC4)CC3)cc21` [VI-23, 1-(5-fluoro-6-(4-hydroxy-1-(((1R, 2R)-2-((4-(4-((1R, 2S)-6-hydroxy-2-phenyl-1,2,3,4-tetrahydronaphthalen-1-yl)phenyl)piperazin-1-yl)methyl)cyclohexyl)methyl)piperidin-4-yl)-1-methyl-1H-indazol-3-yl)dihydropyrimidine-2,4 (1H, 3H)-dione], in the assay on MCF7 cells, the pIC50 was over 7.60. For the same molecule, the “TGI (Day 19)” value with MCF-7 tumor came to 77.9%.
Turning to `O=C1CCC(n2cnc3cc(N4CCN(C[C@@H]5CCCC[C@H]5CN5CCN(c6ccc([C@@H]7c8ccc(O)cc8CC[C@@H]7c7ccccc7)cc6)CC5)CC4)c(F)cc32)C(=O)N1` (stereo partly drawn) [Compound V-2], the pIC50 with MCF7 cells is over 7.30.

Values taken from US20260364185A1, “Estrogen Receptor Modulator and Use Thereof” (JIANGSU VCARE PHARMATECH CO., LTD., priority 2023, published 2026).
